From patent US20090325959A1 (priority 2008, published 2009)
Where two headings read alike, the source gives them in different places.

Legend:
[1] = target: T1, ROCK2 (Homo sapiens, UniProt O75116); assay: Rho kinase inhibition assay (IMAP fluorescence polarization), ROCK2; assay type: biochemical;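 further: kinase reaction started with 10 µM ATP and run 60 min at room temperature, then phosphorylated substrate captured on IMAP beads for 30 min and fluorescence polarization read in mP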
T1 construct: purchased Upstate/Chemicon 14-451
Experimental: (§1) Following the pre-incubation, 10 μM ATP was added to initiate the reaction. After 60 minutes at room temperature, Molecular Devices IMAP™ binding solution was added to bind phosphorylated substrate. After 30 minutes of incubation in the presence of the IMAP™ beads, the fluorescence polarization was read and the ratio was reported as mP. IC50 values for compounds and EC50 values for ATP were calculated using the Prism software from Graphpad.

[2] = target: T2, ROCK1 (Homo sapiens, UniProt Q13464); assay: Rho kinase inhibition assay (IMAP fluorescence polarization), ROCK1; assay type: biochemical;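 further: kinase reaction run 60 min at room temperature, then phosphorylated substrate captured on IMAP beads for 30 min, with fluorescence polarization read in mP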
T2 construct: purchased Upstate/Chemicon 14-601
Experimental: as §1

[3] = system: human neutrophils; assay: Human neutrophil chemotaxis induced by fMLP (modified Boyden chamber); assay type: cell-based
Excerpt: This assay is an in vitro assay of neutrophil chemotaxis that can be used to evaluate the ability of Rho Kinase inhibitor compounds of Formula I or II to inhibit the migration of human neutrophils, an inflammatory cell that has been implicated in the pathophysiology of allergic conjunctivitis.
Peripheral blood from healthy human volunteers was collected and the neutrophils were isolated by Ficoll-paque density centrifugation followed by dextran sedimentation and hypotonic lysis of the red blood cells. Neutrophil chemotaxis was assessed using a modified Boyden Chamber (Neuroprobe, 96-well) with a 3 μm pore polycarbonate membrane. The ability of the tested compounds to block chemotaxis induced by a 1 μM fMLP challenge during a one hour incubation at 37° C. with 5% CO2 was assessed in a dose response manner.

[4] = target: T3, Akt3 human enzyme (Homo sapiens, UniProt Q9Y243); assay: Akt3 inhibition assay (IMAP FP); assay type: biochemical;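 further: kinase reaction run 60 min at room temperature after 30 µM ATP start, phosphorylated substrate captured on IMAP beads and read as fluorescence polarization (mP)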
T3 construct: purchased Upstate Chemicon 14-502

[5] = target: T4, p70S6K human enzyme (Homo sapiens, UniProt P23443, T412E); assay: p70S6K inhibition assay (IMAP FP); assay type: biochemical;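 further: kinase reaction run at room temperature, phosphorylated substrate captured on IMAP beads and read as fluorescence polarization in mP, IC50 then converted to Ki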
T4 construct: purchased Upstate Chemicon 14-486
Experimental: Inhibition of Akt3 and p70S6K activity was determined using the IMAP™ FP Progressive Binding Kit (Molecular Devices product number R8127). […] Following the pre-incubation, 30 μM ATP was added to initiate the reaction. After 60 minutes at RT, Molecular Devices IMAP™ binding solution was added to bind phosphorylated substrate. After 30 minutes of incubation in the presence of the IMAP™ beads the fluorescence polarization was read and the ratio was reported as mP. IC50 results were calculated using the Prism software from Graphpad. The Ki values were determined according to the following formula: Ki=IC50/(1+([ATP Challenge]/EC50 ATP)).

[6] = system: A-10 rat thoracic aorta cells; assay: PDGF-stimulated smooth muscle cell proliferation assay (BrdU incorporation); assay type: cell-based; details: A-10 cells, 10 ng/mL PDGF, BrdU incorporation, percent of total challenge-stimulated proliferation; for Percent of PDGF Induced Proliferation at 1 μM Avg: 1 μM test compound; for Percent of PDGF Induced Proliferation at 10 μM Avg: 10 μM test compound;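 on all read-outs here: cells kept in serum-free medium, BrdU allowed to incorporate for 24 h, then incorporated label detected fluorometrically with an anti-BrdU antibody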
Experimental: Effects on cell proliferation were measured using a bromodeoxyuridine (BrdU) incorporation assay. […] Serum free media containing 01% BSA was added to the cells. 24 hours later the media was removed and replaced with warmed serum free media. […] Proliferation was then monitored using the BrdU Cell Proliferation Assay, HTS (Calbiochem cat. #t HTS01). BrdU was allowed to incorporate into cells for 24 hours prior to the addition of fixative/denaturing solution and the fluorometric detection of incorporated BrdU using a BrdU antibody as per manufacturer's directions. Data are reported as a percent of the PDGF-stimulated BrdU incorporation.

[7] = Compound plasma concentrations in unsensitized mice at 15 min post administration; assay type: in vivo; details: mouse, 15 μmol/kg; mean compound plasma concentration in mice at 15 minutes post oral administration; read-out: Mouse Oral PK
Experimental: Additionally, compound concentrations were determined in the plasma and lungs of male, ovalbumin-sensitized, Balb/c mice from a murine model of asthma. Test compounds were formulated in water or 1% polysorbate 80 and dosed at 15 μmol/kg for intraperitoneal (IP) or oral (PO) administration or formulated for intratracheal (IT) administration and dosed at 5 μmol/kg, which directly targets the lungs. Following completion of the in vivo study, mice were euthanized and blood and plasma collected approximately 2.5-3 hours post administration of test compound for bronchodialator (BD) studies and 24 hours post administration for anti-inflamatory (AI) studies. Lungs were homogenized in Matrix A lysing tubes using a FastPrep 24 tissue and cell homogenizer (MP Biomedicals, Solon, Ohio). Both plasma samples and lung extracts were assayed for compound concentrations using an on-line, solid phase extraction LC/MS/MS system.

[8] = Rat oral pharmacokinetics (plasma); assay type: in vivo; details: 20-30 μmol/kg; for half-life: mean n = 3, read-out: t½ (converted)
[9] = 10 μM ATP, read-out: ROCK2 Ki, Avg
[10] = Neutrophil, 1 h, 1 μM fMLP challenge, one hour, read-out: Chemotaxis Avg. IC50
[11] = 30 μM ATP, Ki=IC50/(1+([ATP Challenge]/EC50 ATP)), read-out: Akt3 Ki, Avg
[12] = 30 μM ATP, Ki=IC50/(1+([ATP Challenge]/EC50 ATP)), read-out: p70S6K Ki, Avg
[13] = average Ki, read-out: p70S6K Ki
[14] = average IC50 for inhibition of fMLP-induced neutrophil chemotaxis, read-out: Chemotaxis IC50
[15] = male, CD Sprague Dawley, mean n = 3
[16] = male, CD Sprague Dawley, mean n = 3, read-out: Cmax
[17] = male, CD Sprague Dawley, mean n = 3, read-out: Tmax

T4 sequence (P23443 1-421 T412E limits assumed): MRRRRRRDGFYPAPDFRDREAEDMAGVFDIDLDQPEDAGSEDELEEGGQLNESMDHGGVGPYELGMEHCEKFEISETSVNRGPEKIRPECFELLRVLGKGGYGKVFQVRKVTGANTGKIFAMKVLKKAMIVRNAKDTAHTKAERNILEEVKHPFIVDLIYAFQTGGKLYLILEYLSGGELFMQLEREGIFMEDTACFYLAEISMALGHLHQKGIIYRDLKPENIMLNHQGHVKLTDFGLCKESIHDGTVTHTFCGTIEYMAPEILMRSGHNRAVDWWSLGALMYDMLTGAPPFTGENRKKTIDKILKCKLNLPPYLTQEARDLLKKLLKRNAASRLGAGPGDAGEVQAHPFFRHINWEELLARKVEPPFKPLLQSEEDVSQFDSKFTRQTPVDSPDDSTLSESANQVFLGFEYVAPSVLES
T1 sequence (O75116 11-552 limits assumed): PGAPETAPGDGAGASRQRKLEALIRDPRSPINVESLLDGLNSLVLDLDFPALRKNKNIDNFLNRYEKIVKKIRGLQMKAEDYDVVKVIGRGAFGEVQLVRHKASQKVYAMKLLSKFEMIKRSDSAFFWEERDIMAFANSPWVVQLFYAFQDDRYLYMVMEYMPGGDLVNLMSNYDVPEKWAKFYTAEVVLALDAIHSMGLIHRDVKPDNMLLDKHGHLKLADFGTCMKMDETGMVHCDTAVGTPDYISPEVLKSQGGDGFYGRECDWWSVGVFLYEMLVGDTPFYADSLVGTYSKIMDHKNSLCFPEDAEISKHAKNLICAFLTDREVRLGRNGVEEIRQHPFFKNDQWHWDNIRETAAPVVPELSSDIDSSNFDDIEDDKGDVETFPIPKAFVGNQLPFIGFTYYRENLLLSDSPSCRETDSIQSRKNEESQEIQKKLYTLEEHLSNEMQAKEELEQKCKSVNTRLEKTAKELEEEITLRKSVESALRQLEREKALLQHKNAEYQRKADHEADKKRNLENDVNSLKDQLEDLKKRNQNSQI
T2 sequence (Q13464 17-535 limits assumed): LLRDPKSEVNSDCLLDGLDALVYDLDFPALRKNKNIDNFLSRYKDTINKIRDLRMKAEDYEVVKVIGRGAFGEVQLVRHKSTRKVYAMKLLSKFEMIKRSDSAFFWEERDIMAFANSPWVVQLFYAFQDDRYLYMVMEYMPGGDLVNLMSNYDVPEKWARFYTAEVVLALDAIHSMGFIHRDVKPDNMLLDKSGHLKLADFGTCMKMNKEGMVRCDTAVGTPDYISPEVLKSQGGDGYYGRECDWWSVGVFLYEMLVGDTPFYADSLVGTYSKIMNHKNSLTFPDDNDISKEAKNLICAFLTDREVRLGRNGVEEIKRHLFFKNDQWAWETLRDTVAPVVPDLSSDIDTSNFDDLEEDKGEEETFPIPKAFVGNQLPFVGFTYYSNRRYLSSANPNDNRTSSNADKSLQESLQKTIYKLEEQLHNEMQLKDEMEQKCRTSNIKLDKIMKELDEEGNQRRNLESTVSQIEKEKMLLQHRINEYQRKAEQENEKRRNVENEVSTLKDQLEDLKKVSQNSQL
T3 sequence (Q9Y243 whole entry): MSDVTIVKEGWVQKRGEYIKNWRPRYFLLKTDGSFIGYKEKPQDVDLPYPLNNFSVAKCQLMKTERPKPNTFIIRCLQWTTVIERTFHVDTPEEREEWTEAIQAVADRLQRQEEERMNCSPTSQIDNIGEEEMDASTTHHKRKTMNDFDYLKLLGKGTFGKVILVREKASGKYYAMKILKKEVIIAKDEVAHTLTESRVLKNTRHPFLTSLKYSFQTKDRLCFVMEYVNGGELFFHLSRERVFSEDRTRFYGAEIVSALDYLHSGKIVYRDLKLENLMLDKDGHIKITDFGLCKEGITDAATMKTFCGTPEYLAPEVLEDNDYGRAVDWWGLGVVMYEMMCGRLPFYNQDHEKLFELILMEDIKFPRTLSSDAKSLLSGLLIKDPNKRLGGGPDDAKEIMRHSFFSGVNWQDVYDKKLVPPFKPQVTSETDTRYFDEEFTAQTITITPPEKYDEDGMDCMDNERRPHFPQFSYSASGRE

| SMILES | Ki [1, 9] [nM] | Ki ([2]; Avg, 10 μM ATP) [nM] | IC50 [3, 10] [nM] | Ki [4, 11] [nM] | Ki ([4]; average Ki, read-out: Akt3 Ki) [nM] | Ki [5, 12] [nM] | Ki [5, 13] [nM] | Percent of PDGF Induced Proliferation at 1 μM Avg [6] [%] | Percent of PDGF Induced Proliferation at 10 μM Avg [6] [%] | Ki ([1]; average Ki, read-out: ROCK2 Ki) [nM] | concentration at 15 min [7] [nM] | Ki ([2]; average Ki) [nM] | Vz_F ([8]; mean n = 3) | also measured |
| --- | --- | --- | --- | --- | --- | --- | --- | --- | --- | --- | --- | --- | --- | --- |
| OCCOc1cccc(CN2CCC[C@H](Nc3cccc4cnccc34)C2)c1 [Compound 2.036, (S)-2-(3-((3-(isoquinolin-5-ylamino)piperidin-1-yl)methyl)phenoxy)ethanol] | 233 | 579 | 2770 |  |  |  |  |  |  |  |  |  |  |  |
| C[C@@H](N)c1ccc(C(=O)Nc2ccnc3[nH]ccc23)cc1 [Compound Y-39983, reference compound] |  |  | 1390 |  |  |  |  |  |  |  |  |  |  |  |
| CS(=O)(=O)Nc1cccc(CN2CCC(Nc3ccc4[nH]ncc4c3)C2)c1 (stereo not shown) [Compound 1.087, N-(3-((3-(1H-indazol-5-ylamino)pyrrolidin-1-yl)methyl)phenyl)methanesulfonamide] | 15.4 | 84.1 | 4500 |  |  |  |  |  |  |  |  |  |  |  |
| OCCOc1cccc(CN2CCC[C@@H](Nc3cccc4cnccc34)C2)c1 [Compound 2.034, (R)-2-(3-((3-(isoquinolin-5-ylamino)piperidin-1-yl)methyl)phenoxy)ethanol] | 221 | 1000 | 4730 |  |  |  |  |  |  |  |  |  |  |  |
| c1cc2cc(CN3CCC[C@@H](Nc4ccc5[nH]ncc5c4)C3)ccc2s1 [Compound 1.138, (R)-N-(1-(benzo[b]thiophen-5-ylmethyl)piperidin-3-yl)-1H-indazol-5-amine] | 7.2 | 36.3 | 1850 | 91.3 | 91.3 | 444 | 444 | 46.3 | 27.0 | 6.3 | 1860 | 41.1 |  | IC50 [3, 14]: 1900 nM |
| CSc1ccc(CN2CC[C@@H](Nc3cccc4cnccc34)C2)cc1 [Compound 2.026, (R)-N-(1-(4-(methylthio)benzyl)pyrrolidin-3-yl)isoquinolin-5-amine] | 13 | 38 |  | 2080 | 2080 | 536 | 536 | 74.5 | 52.0 | 13 | 629 | 38 | BLQ | IC50 ([3]; Neutrophil, 1 h, read-out: Chemotaxis Avg. IC50): 3800 nM; IC50 ([3]; Neutrophil, read-out: Chemotaxis IC50): 3800 nM; AUC (0-last) ([8]; mean n = 3): BLQ; Cmax ([8]; mean n = 3): BLQ; Tmax ([8]; mean n = 3): BLQ; t½ ([8]; mean n = 3): BLQ |
| CCS(=O)(=O)Nc1cc(CN2CCC[C@H](Nc3ccc4[nH]ncc4c3)C2)ccc1C [Compound 1.253, (S)-N-(5-((3-(1H-indazol-5-ylamino)piperidin-1-yl)methyl)-2-methylphenyl)ethanesulfonamide] | 1.7 | 59.9 |  | 2600 | 2600 | 2510 | 2510 | 44.8 | 47.9 | 1.7 | 240 | 59.9 |  |  |
| CCS(=O)(=O)Nc1cccc(CN2CCC[C@H](Nc3ccc4[nH]ncc4c3)C2)c1 [Compound 1.124, (S)-N-(3-((3-(1H-indazol-5-ylamino)piperidin-1-yl)methyl)phenyl)ethanesulfonamide] | 3.3 | 64.5 | 3400 | 7870 | 7870 | 3330 | 3330 | 68.5 | 61.6 | 3.3 | 118 | 64.5 | 93.4 L/kg | IC50 [3, 14]: 3400 nM; AUC(0-t) [8, 15]: 0.535 µM·h; Cmax [8, 16]: 415 nM; Tmax [8, 17]: 0.5 h; half-life ([8]; male, CD Sprague Dawley): 1.39 h |
| NC(=O)Cn1ccc2ccc(CN3CCC[C@H](Nc4ccc5[nH]ncc5c4)C3)cc21 [Compound 1.107, (S)-2-(6-((3-(1H-indazol-5-ylamino)piperidin-1-yl)methyl)-1H-indol-1-yl)acetamide] | 14 | 234 |  | 16300 |  | 3360 |  |  |  |  |  |  | 36.3 L/kg | AUC(0-t) [8, 15]: 1.59 µM·h; Cmax [8, 16]: 544 nM; Tmax [8, 17]: 1.67 h; half-life ([8]; male, CD Sprague Dawley): 1.28 h |
